Experimental data as given in patent publication US6756390B2, “Organic acid salt of amlodipine” (CJ Corp., priority 2002, dated 2004).

Experiments:
Format in all cases: physicochemical
[1] = Light stability, 4 weeks at 25° C. with exposure to daylight, HPLC
From the text: A measurement was made of the contents of the salts with resort to HPLC under the same conditions as in the chemical stability test.

[2] = Solubility in various solvents at 37° C.; conditions: aqueous buffer, ionic strength 0.2, 37° C., based on the weight of amlodipine
[3] = Chemical stability in aqueous state, 25° C., 4 weeks in the dark, HPLC; conditions: distilled water
Protocol: The resulting aqueous solutions were stored at 25° C. for 4 weeks in the dark, after which a measurement was made of the contents of the salts with resort to HPLC under the same conditions as in the solid state.

[4] = Chemical stability in solid state, accelerated test at 60° C.

SMILES | Color change on light exposure ([1]; 4 weeks, 25° C., daylight) | Content (HPLC), Stored 4 weeks, 25° C. daylight ([1]; 4 weeks, 25° C., daylight) [%] | Content (HPLC), Initial [1] [%] | solubility ([2]; pH 3 buffer) [µg/mL] | solubility ([2]; pH 4 buffer) [µg/mL] | solubility ([2]; pH 6 buffer) [µg/mL] | solubility ([2]; pH 7 buffer) [µg/mL] | solubility ([2]; pH 8 buffer) [µg/mL] | Degraded impurity / content change in aqueous solution [3] | Content, storage period 1 week ([4]; 1 week) [%] | Content, storage period 2 weeks ([4]; 2 weeks) [%] | Content, storage period 4 weeks ([4]; 4 weeks) [%] | Content, storage period initial ([4]; initial) [%]
CCOC(=O)C1=C(COCCN)NC(C)=C(C(=O)OC)C1c1ccccc1Cl (stereo not drawn) [Besylate, Amlodipine Besylate] | turned yellow from white | 82.5 | 99.2 | 3250 | 3150 | 3190 | 1590 | 1390 | neither degraded impurity nor content change was found | 99.6 | 99.4 | 99.2 | 99.6
CCOC(=O)C1=C(COCCN)NC(C)=C(C(=O)OC)C1c1ccccc1Cl.Cc1ccc(S(=O)(=O)O)cc1 (stereo not drawn) [Tosylate, Amlodipine Para-toluenesulfonate] | – | 72.0 | 99.2 | – | – | – | – | – | – | – | – | – | –
